Paper PMC5719405, “Sex-related pharmacokinetic differences and mechanisms of metapristone (RU486 metabolite)” (Scientific Reports, 2017)
Where two headings read alike, the source gives them in different places.

Key:
human CYP3A4 = human CYP3A4 (Homo sapiens, UniProt P08684); experiment: Metapristone metabolism by cDNA-expressed recombinant human CYP3A4; conditions: 9 µM
Method: The reactions of the control groups with control rat liver microsomes (heated to 80 °C for 5 min to inactivate enzymes) to inactivate enzymes or without NADPH were also included. […] The cDNA-expressed recombinant human CYPs were prepared from insect cells transfected with cDNAs encoding for human CYP1A2 or CYP3A4. […] Each reaction was then started by the addition of metapristone (9 µM) with subsequent mixing of each sample by inversion. […] Metapristone were identified by the LC/MS/MS method. Peak areas formed were used for quantitative analyses. Control incubation mixtures included mixtures without inhibitors, and mixtures with untransfected insect cell microsomes used as microsomal control, and mixtures that contained methanol instead of inhibitor (methanol control). Quantitative analyses were performed by comparing the peak areas of the inhibition reactions to their respective methanol controls. The total organic solvent content of the in vitro reaction mixtures was less than 2%.

[1] = Single-dose pharmacokinetics of metapristone in rats (p.o. and i.v.), non-compartmental analysis; assay type: in vivo, Sprague Dawley (SD) rats; conditions: for MRT last: read-out: MRT (0-t)
Method: (§1) For pharmacokinetic study, rats were fasted overnight with free access to water using procedures reported previously. Ninety-six SD rats (forty-eight males and forty-eight females) were randomly divided into […] single-dose groups. Rats (six animals/sex/dose) were given a single oral dose of 22.5, 45 and 90 mg/kg metapristone (in soybean oil solution) by intragastric administration or 10 mg/kg metapristone by intravenous bolus injection. Rat blood samples (0.25 mL) were collected from the ocular vein into heparinized tubes prior to and at 0 (before administration), 0.5, 1.0, 1.5, 2.0, 4.0, 6.0, 8.0, 12, 24, 36 and 48 h post-dosing in female rats or 0.5, 1.0, 1.5, 2.0, 4.0, 6.0, 8.0, 12, 24, 30 and 36 h post-dosing in male rats. In the repeated dose study twenty-four rats (six animals/sex/dose) received the same dosing regimen at 45 mg/kg metapristone for 10 days. Blood samples were collected after oral administration on day 1 and 10 at T max. The samples were stored at −80 °C until analysis. Beagle dogs (three animals/sex/dose) were dosed by gavage at 5.62, 11.25, 22.5 mg/kg metapristone (in soybean oil solution). Dog blood (0.25 mL) was withdrawn from the jugular vein at 0.5, 1.0, 2.0, 4.0, 6.0, 8.0, 10, 12, 24 and 48 h after a single oral administration.
The plasma samples obtained by centrifugation at 4000 g for 10 min and stored at −80 °Cuntil analysis. To each 100 µL of plasma sample, 50 µL of internal standard solution were added. Metapristone was then separated and analyzed by the LC/MS/MS method according to the previously described procedures. Peak area ratios of metapristone to the internal standard were plotted against theoretical concentrations. The maximum plasma concentration (C max), the time to reach C max (T max) were determined directly from experimental data. The other pharmacokinetic parameters such as elimination half-life (t 1/2), and mean residence time (MRT) were calculated by using the non-compartmental pharmacokinetics data analysis software of DAS version 3.2 (Bio Guider Co., Shanghai, China). The area under the plasma concentration-time curve from zero to infinity was calculated by using the linear trapezoidal rule with extrapolation to infinity with terminal constant eliminate rate (k e). Bioavailability was calculated as (AUCp.o./AUCi.v.) x (dosei.v./ dosep.o.) 100% as we previously described.

cancer cells = conditions: cited from earlier work
[2] = Repeated 10-day oral dosing, accumulation of metapristone in blood; assay type: in vivo; conditions: rats, 45 mg/kg/day p.o. for 10 days, 6 h post dosing
Method: In order to determine whether metapristone accumulated in blood over a long period of multiple dose administration, metapristone levels in blood were monitored at 6 h post dosing on day 1 and 10 during a consecutive 10-day oral dosing period with metapristone at 45 mg/kg/day.
as §1, with “Beagle dogs (three animals/sex/dose) were dosed by gavage at 5.62, 11.25, 22.5 mg/kg metapristone (in soybean oil solution). Dog blood (0.25 mL) was withdrawn from the jugular vein at 0.5, 1.0, 2.0, 4.0, 6.0, 8.0, 10, 12, 24 and 48 h after a single oral administration.” left out

[3] = Sprague-Dawley, rat, plasma, iv, female rats, i.v. 10 mg/kg
[4] = Sprague-Dawley, rat, plasma, iv, male rats, i.v. 10 mg/kg
[5] = Sprague-Dawley, rat, plasma, po, female rats, p.o. 22.5 mg/kg
[6] = Sprague-Dawley, rat, plasma, po, female rats, p.o. 45 mg/kg
[7] = Sprague-Dawley, rat, plasma, po, female rats, p.o. 90 mg/kg
[8] = Sprague-Dawley, rat, plasma, po, male rats, p.o. 22.5 mg/kg
[9] = Sprague-Dawley, rat, plasma, po, male rats, p.o. 45 mg/kg
[10] = Sprague-Dawley, rat, plasma, po, male rats, p.o. 90 mg/kg

Chain of human CYP3A4 (P08684 whole entry): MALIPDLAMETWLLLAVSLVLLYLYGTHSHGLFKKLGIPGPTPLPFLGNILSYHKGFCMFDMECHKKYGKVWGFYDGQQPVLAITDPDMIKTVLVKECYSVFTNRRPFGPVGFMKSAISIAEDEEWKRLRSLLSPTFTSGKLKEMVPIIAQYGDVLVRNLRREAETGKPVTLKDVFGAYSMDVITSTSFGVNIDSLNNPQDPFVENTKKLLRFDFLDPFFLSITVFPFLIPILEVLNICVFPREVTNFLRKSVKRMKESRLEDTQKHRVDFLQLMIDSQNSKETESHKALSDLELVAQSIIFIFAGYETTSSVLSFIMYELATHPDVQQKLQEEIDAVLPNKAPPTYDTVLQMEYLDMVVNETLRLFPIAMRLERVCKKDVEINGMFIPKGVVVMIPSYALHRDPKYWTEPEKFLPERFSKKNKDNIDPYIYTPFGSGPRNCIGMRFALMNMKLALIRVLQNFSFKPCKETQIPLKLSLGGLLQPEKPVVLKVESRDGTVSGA

## CC#C[C@]1(O)CC[C@H]2[C@@H]3CCC4=CC(=O)CCC4=C3[C@@H](c3ccc(NC)cc3)C[C@@]21C [metapristone, N-monodemethyl mifepristone]
Human CYP3A4; 120 min incubation with CYP3A4, absence of inhibitor
  metapristone remaining: 16.3%
Human CYP3A4; 120 min incubation with CYP3A4, plus ketoconazole 10 µM
  metapristone unchanged: 72.9%
[1]; [3]
  AUC(0-inf): 9810 ± 2340 ng·h/mL
  AUC(0-t): 9750 ± 2320 ng·h/mL
  Cmax: 6050 ± 670 ng/mL
  half-life: 5.18 ± 3.41 h
  MRT last: 1.68 ± 0.72 h
[1]; [4]
  AUC(0-inf): 5460 ± 1150 ng·h/mL
  AUC(0-t): 5520 ± 1150 ng·h/mL
  Cmax: 4050 ± 250 ng/mL
  half-life: 9.45 ± 4.99 h
  MRT last: 1.56 ± 0.41 h
[1]; [5]
  AUC(0-inf): 4230 ± 1640 ng·h/mL
  AUC(0-t): 4050 ± 1620 ng·h/mL
  Cmax: 270 ± 50 ng/mL
  half-life: 10.8 ± 3.2 h
  MRT last: 14.4 ± 5.65 h
[1]; Sprague-Dawley, rat, plasma, po, female rats, p.o. 22.5 mg/kg, read-out: F
  bioavailability: 18.5%
[1]; Sprague-Dawley, rat, plasma, po, female rats, p.o. 22.5 mg/kg, read-out: T max
  Tmax: 9 ± 7.5 h
[1]; Sprague-Dawley, rat, plasma, po, female rats, p.o. 22.5 mg/kg, read-out: V d /F
  Vd/F: 77.3 ± 36 L/kg
[1]; [6]
  AUC(0-inf): 11300 ± 3170 ng·h/mL
  AUC(0-t): 9630 ± 4540 ng·h/mL
  Cmax: 650 ± 220 ng/mL
  half-life: 10.7 ± 3.71 h
  MRT last: 13.7 ± 6.91 h
[1]; Sprague-Dawley, rat, plasma, po, female rats, p.o. 45 mg/kg, read-out: F
  bioavailability: 22%
[1]; Sprague-Dawley, rat, plasma, po, female rats, p.o. 45 mg/kg, read-out: T max
  Tmax: 11 ± 12.3 h
[1]; Sprague-Dawley, rat, plasma, po, female rats, p.o. 45 mg/kg, read-out: V d /F
  Vd/F: 67.6 ± 47.6 L/kg
[1]; [7]
  AUC(0-inf): 15600 ± 2100 ng·h/mL
  AUC(0-t): 14900 ± 2190 ng·h/mL
  Cmax: 790 ± 200 ng/mL
  half-life: 8.83 ± 7.3 h
  MRT last: 15.6 ± 5.82 h
[1]; Sprague-Dawley, rat, plasma, po, female rats, p.o. 90 mg/kg, read-out: F
  bioavailability: 16.9%
[1]; Sprague-Dawley, rat, plasma, po, female rats, p.o. 90 mg/kg, read-out: T max
  Tmax: 7.58 ± 3.38 h
[1]; Sprague-Dawley, rat, plasma, po, female rats, p.o. 90 mg/kg, read-out: V d /F
  Vd/F: 86.3 ± 62.9 L/kg
[1]; [8]
  AUC(0-inf): 4470 ± 1110 ng·h/mL
  AUC(0-t): 3570 ± 1090 ng·h/mL
  Cmax: 30 ± 10 ng/mL
  half-life: 8 ± 2.4 h
  MRT last: 11.2 ± 2.12 h
[1]; Sprague-Dawley, rat, plasma, po, male rats, p.o. 22.5 mg/kg, read-out: F
  bioavailability: 28.7%
[1]; Sprague-Dawley, rat, plasma, po, male rats, p.o. 22.5 mg/kg, read-out: T max
  Tmax: 5.7 ± 2 h
[1]; Sprague-Dawley, rat, plasma, po, male rats, p.o. 22.5 mg/kg, read-out: V d /F
  Vd/F: 804 ± 267 L/kg
[1]; [9]
  AUC(0-inf): 2040 ± 1330 ng·h/mL
  AUC(0-t): 1960 ± 1320 ng·h/mL
  Cmax: 140 ± 100 ng/mL
  half-life: 8.11 ± 4.31 h
  MRT last: 13.9 ± 1.17 h
[1]; Sprague-Dawley, rat, plasma, po, male rats, p.o. 45 mg/kg, read-out: F
  bioavailability: 7.9%
[1]; Sprague-Dawley, rat, plasma, po, male rats, p.o. 45 mg/kg, read-out: T max
  Tmax: 7.7 ± 2.9 h
[1]; Sprague-Dawley, rat, plasma, po, male rats, p.o. 45 mg/kg, read-out: V d /F
  Vd/F: 768 ± 127 L/kg
[1]; [10]
  AUC(0-inf): 8920 ± 960 ng·h/mL
  AUC(0-t): 8760 ± 70 ng·h/mL
  Cmax: 550 ± 180 ng/mL
  half-life: 4.62 ± 3 h
  MRT last: 12.8 ± 2.43 h
[1]; Sprague-Dawley, rat, plasma, po, male rats, p.o. 90 mg/kg, read-out: F
  bioavailability: 17.6%
[1]; Sprague-Dawley, rat, plasma, po, male rats, p.o. 90 mg/kg, read-out: T max
  Tmax: 10.3 ± 2.7 h
[1]; Sprague-Dawley, rat, plasma, po, male rats, p.o. 90 mg/kg, read-out: V d /F
  Vd/F: 92.5 ± 91.7 L/kg
[1]; Sprague-Dawley, rat, plasma, male rats, range over three oral doses, read-out: Oral bioavailability
  bioavailability: 2.1 to 17.6%
[1]; Sprague-Dawley, rat, plasma, rats, both sexes, oral doses of Table 1, read-out: T max after oral absorption
  Tmax: 5.7 to 11 h
[1]; female rats, i.v. 10 mg/kg
  CL/F: 17.7 ± 4.17 mL/min/kg
  Vd/F: 8.02 ± 6.13 L/kg
[1]; female, Sprague-Dawley, rat, plasma, po, 22.5 mg/kg, female rats, p.o. 22.5 mg/kg, read-out: CL/F (converted)
  CL/F: 117 mL/min/kg
[1]; female, Sprague-Dawley, rat, plasma, po, 45 mg/kg, female rats, p.o. 45 mg/kg, read-out: CL/F (converted)
  CL/F: 87.5 mL/min/kg
[1]; female, Sprague-Dawley, rat, plasma, po, 90 mg/kg, female rats, p.o. 90 mg/kg, read-out: CL/F (converted)
  CL/F: 80.8 mL/min/kg
[1]; i.v. 10 mg/kg
  decrease of CL/F for female rats versus male rats: 87%
[1]; male rats, i.v. 10 mg/kg
  CL/F: 33 ± 6.5 mL/min/kg
  Vd/F: 24.34 ± 5.52 L/kg
[1]; male rats, p.o. 45 mg/kg, 45 mg/kg
  CL/F: 782.2 ± 345 mL/min/kg
[1]; male, Sprague-Dawley, rat, plasma, po, 22.5 mg/kg, male rats, p.o. 22.5 mg/kg, read-out: CL/F (converted)
  CL/F: 1160 mL/min/kg
[1]; male, Sprague-Dawley, rat, plasma, po, 45 mg/kg, male rats, p.o. 45 mg/kg, read-out: CL/F (converted)
  CL/F: 782 mL/min/kg
[1]; male, Sprague-Dawley, rat, plasma, po, 90 mg/kg, male rats, p.o. 90 mg/kg, read-out: CL/F (converted)
  CL/F: 196 mL/min/kg
[1]; p.o. 45 mg/kg
  increase of C max for female rats versus male rats: 364%
Cancer cells
  effect on cancer cells: cytostatic effect
[2]
  accumulation of metapristone in blood, day 10 versus day 1: about 6 fold
